Reference: the CheMixHub viscosity set

Assay: xn = mol fraction of the nth substance listed

CCCCCCCCCCCCCC[P+](CCCCCC)(CCCCCC)CCCCCC.c1nnc[n-]1 + COCCOCCOCCOCCOC
viscosity [mPa·s], 100 kPa
Settings | x1 = 0.418 | x1 = 0.516 | x1 = 0.61 | x1 = 0.694 | x1 = 0.751 | x1 = 0.804 | x1 = 0.874 | x1 = 0.954
293.15 K | 66 | 111 | 167 | 272 | 360 | 508 | 679 | 994
298.15 K | 53 | 88 | 128 | 208 | 269 | 374 | 491 | 706
303.15 K | – | 70 | 101 | 162 | 205 | 281 | 364 | 512
308.15 K | – | 57 | 81 | 129 | 160 | 217 | 275 | 382
313.15 K | – | – | 66 | 104 | 126 | 169 | 212 | 289
318.15 K | – | – | 54 | 86 | 102 | 135 | 166 | 223
323.15 K | – | – | – | 71 | 83 | 109 | 133 | 176

CCOCC + ClC(Cl)Cl
101.33 kPa
Settings | viscosity [mPa·s]
293.15 K, x2 = 0.1704 | 0.295
293.15 K, x2 = 0.2909 | 0.354
293.15 K, x2 = 0.4425 | 0.416
293.15 K, x2 = 0.562 | 0.466
293.15 K, x2 = 0.6848 | 0.507
293.15 K, x2 = 0.8038 | 0.536
293.15 K, x2 = 0.8989 | 0.555
298.15 K, x1 = 0.274 | 0.472
298.15 K, x1 = 0.528 | 0.397
298.15 K, x1 = 0.672 | 0.34
298.15 K, x1 = 0.863 | 0.268
298.15 K, x2 = 0.1567 | 0.282
298.15 K, x2 = 0.3094 | 0.343
298.15 K, x2 = 0.4329 | 0.395
298.15 K, x2 = 0.5582 | 0.445
298.15 K, x2 = 0.6897 | 0.489
298.15 K, x2 = 0.8073 | 0.519
298.15 K, x2 = 0.8947 | 0.536

CC(=O)CC(C)C + CCCC(C)O
viscosity [mPa·s], 101.3 kPa
Settings | x1 = 0.1036 | x1 = 0.2131 | x1 = 0.3003 | x1 = 0.3959 | x1 = 0.5098 | x1 = 0.5963 | x1 = 0.6924 | x1 = 0.7942 | x1 = 0.9001
298.15 K | 2.26 | 1.61 | 1.32 | 1.12 | 0.924 | 0.821 | 0.712 | 0.646 | 0.589
303.15 K | 1.93 | 1.41 | 1.16 | 1.01 | 0.848 | 0.76 | 0.664 | 0.607 | 0.557
308.15 K | 1.65 | 1.25 | 1.05 | 0.91 | 0.78 | 0.705 | 0.62 | 0.571 | 0.527
313.15 K | 1.41 | 1.1 | 0.965 | 0.837 | 0.718 | 0.658 | 0.601 | 0.553 | 0.502

CCOCC + CC(=O)O
viscosity [mPa·s], 101 kPa
Settings | x2 = 0.124 | x2 = 0.2575 | x2 = 0.5649 | x2 = 0.6393 | x2 = 0.749 | x2 = 0.9116
293.15 K | 0.3184 | 0.3737 | 0.5451 | 0.6641 | – | 1.048
303.15 K | 0.2837 | 0.3354 | 0.483 | 0.5903 | 0.7376 | 0.8999
313.15 K | – | 0.3088 | – | 0.5215 | 0.6621 | 0.791
323.15 K | – | – | 0.3937 | 0.4665 | 0.5877 | 0.6835

O=C1CCCCC1 + CS(C)=O
303.15 K, 101 kPa
Settings | viscosity [mPa·s]
x2 = 0.099 | 1.721
x2 = 0.1791 | 1.669
x2 = 0.2687 | 1.649
x2 = 0.3683 | 1.648
x2 = 0.4653 | 1.657
x2 = 0.5628 | 1.675
x2 = 0.6679 | 1.698
x2 = 0.7877 | 1.725
x2 = 0.8903 | 1.755

CCCCCC(=O)O + c1ccccc1
298.15 K, 101 kPa
Settings | viscosity [mPa·s]
x1 = 0.03 | 0.626
x1 = 0.07 | 0.653
x1 = 0.11 | 0.684
x1 = 0.14 | 0.718
x1 = 0.31 | 0.908
x1 = 0.4 | 1.058
x1 = 0.5 | 1.284
x1 = 0.73 | 1.844

O=C1CCCCC1 + CCOC(=O)OCC
viscosity [mPa·s], 101 kPa
Settings | x2 = 0.0898 | x2 = 0.1505 | x2 = 0.2556 | x2 = 0.3587 | x2 = 0.4619 | x2 = 0.5665 | x2 = 0.6701 | x2 = 0.7601 | x2 = 0.8945 | x2 = 0.9487
303.15 K | 1.626 | 1.498 | 1.321 | 1.156 | 1.028 | 0.911 | 0.825 | 0.768 | 0.719 | 0.708
308.15 K | 1.479 | 1.37 | 1.202 | 1.056 | 0.937 | 0.837 | 0.759 | 0.711 | 0.669 | 0.658
313.15 K | 1.375 | 1.274 | 1.116 | 0.981 | 0.873 | 0.784 | 0.714 | 0.668 | 0.626 | 0.617

CC(C)CC(=O)CC(C)C + CC(C)O
viscosity [mPa·s], 100 kPa
Settings | x1 = 0.0818 | x1 = 0.1619 | x1 = 0.2451 | x1 = 0.3518 | x1 = 0.4413 | x1 = 0.5637 | x1 = 0.6549 | x1 = 0.7367 | x1 = 0.8528 | x1 = 0.9379
293.15 K | 1.93 | 1.52 | 1.19 | 0.92 | 0.76 | 0.65 | 0.63 | 0.66 | 0.77 | 0.87
298.15 K | 1.73 | 1.41 | 1.14 | 0.88 | 0.72 | 0.62 | 0.61 | 0.64 | 0.74 | 0.83
303.15 K | 1.51 | 1.26 | 1.05 | 0.83 | 0.7 | 0.6 | 0.59 | 0.62 | 0.72 | 0.8
308.15 K | 1.32 | 1.12 | 0.95 | 0.77 | 0.66 | 0.58 | 0.57 | 0.6 | 0.68 | 0.76
313.15 K | 1.18 | 1.01 | 0.87 | 0.72 | 0.63 | 0.56 | 0.55 | 0.57 | 0.64 | 0.71
318.15 K | 1.05 | 0.92 | 0.8 | 0.67 | 0.6 | 0.54 | 0.53 | 0.55 | 0.61 | 0.67
323.15 K | 0.93 | 0.82 | 0.72 | 0.63 | 0.57 | 0.52 | 0.51 | 0.53 | 0.58 | 0.63
